Measurements published in US5610151A, “Monomeric bile acid derivatives, processes for their preparation and the use of these compounds as medicaments” (Hoechst Aktiengesellschaft, priority 1993, dated 1997).

Molecular target: T1, Na+-dependent bile acid transportation system (Oryctolagus cuniculus, UniProt Q28727)
T1 construct: Brush border membrane vesicles were prepared from the intestinal cells of the small intestine; from tissue; host or cells: terminal 7/10 of the small intestine (ileum) of male New Zealand rabbits, mucosal brush border membrane vesicles
T1 sequence (Q28727 1-347): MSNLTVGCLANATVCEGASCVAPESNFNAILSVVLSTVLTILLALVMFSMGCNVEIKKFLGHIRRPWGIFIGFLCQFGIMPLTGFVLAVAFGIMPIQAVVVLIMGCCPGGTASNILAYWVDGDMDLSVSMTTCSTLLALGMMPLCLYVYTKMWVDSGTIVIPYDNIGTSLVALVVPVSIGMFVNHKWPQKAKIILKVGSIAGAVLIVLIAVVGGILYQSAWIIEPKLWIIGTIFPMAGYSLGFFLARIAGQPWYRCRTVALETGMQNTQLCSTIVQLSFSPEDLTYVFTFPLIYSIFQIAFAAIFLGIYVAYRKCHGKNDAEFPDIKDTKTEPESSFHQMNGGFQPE
Assay: Inhibition of [3H]-taurocholate uptake in brush border membrane vesicles from the ileum of rabbits
Type: biochemical
Conditions: Na+-dependent [3H]-taurocholate uptake (difference Na-T-P minus K-T-P), 50 μM taurocholate, rabbit ileum brush border membrane vesicles; drawing 7
Description: The compounds according to the invention were tested biologically by determination of the inhibition of [^3 H]taurocholate uptake in the brush border membrane vesicles from the ileum of rabbits. The inhibition test was carried out as follows:
1. Preparation of brush border membrane vesicles from the ileum of rabbits
Brush border membrane vesicles were prepared from the intestinal cells of the small intestine by the so-called Mg^2+ precipitation method. Male New Zealand rabbits (2 to 2.5 kg body weight) were sacrificed by intravenous injection of 0.5 ml of an aqueous solution of 2.5 mg of tetracaine HCl, 100 T 61^R and 25 mg of mebezonium iodide. The small intestine was removed and rinsed with ice-cold physiological saline solution. The terminal 7/10 of the small intestine (measured in the oral-rectal direction, i.e. the terminal ileum, which contains the active Na^+ -dependent bile acid transportation system) was used for preparation of the brush border membrane vesicle. The intestines were frozen in plastic bags under nitrogen at -80° C. For preparation of the membrane vesicles, the frozen intestines were thawed at 30° C. in a water bath. The mucosa was scraped off and suspended in 60 ml of ice-cold 12 mM Tris/HCl buffer (pH 7.1)/300 mM mannitol, 5 mM EGTA/10 mg/1 of phenylmethylsulfonyl fluoride/1 mg/1 of trypsin inhibitor from soybeans (32 U/mg)/0.5 mg/1 of trypsin inhibitor from bovine lung (193 U/mg)/5 mg/1 of bacitracin. After dilution to 300 ml with ice-cold distilled water, the mixture was homogenized with an Ultraturrax (18-rod, IKA Werk Staufen, FRG) for 3 minutes at 75% of the maximum output, while cooling with ice. After addition of 3 ml of 1M MgCl2 solution (final concentration 10 mM), the mixture was left to stand at 0° C. for exactly 1 minute. The cell membranes aggregate by addition of Mg^2+ and precipitate, with the exception of the brush border membranes. After centrifugation at 3000× g (5000 rpm, SS-34 rotor) for 15 minutes, the precipitate was discarded, and the supernatant, which contained the brush border membranes, was centrifuged at […] (15000 rpm, SS-34 rotor) for 30 minutes. The supernatant was discarded and the precipitate was rehomogenized in 60 ml of 12 mM Tris/HCl buffer (pH 7.1)/60 mM mannitol, 5 mM EGTA using a Potter Elvejhem homogenizer (Braun, Melsungen, 900 rpm, 10 strokes). After addition of 0.1 ml of 1 M MgCl2 solution and an incubation time of 15 minutes at 0° C., the mixture was centrifuged again at 3000× g for 15 minutes. The supernatant was then centrifuged again at 46000× g (15000 rpm, SS-34 rotor) for 30 minutes. The precipitate was taken up in 30 ml of 10 mM Tris/Hepes buffer (pH 7.4)/300 mM mannitol and resuspended homogeneously by 20 strokes in a Potter Elvejhem homogenizer at 1000 rpm. After centrifugation at 48000× g (20000 rpm, SS-34 rotor) for 30 minutes, the precipitate was taken up in 0.5 to 2 ml of Tris/Hepes buffer (pH 7.4)/280 mM mannitol (final concentration 20 mg/ml) and resuspended with the aid of a tuberculin syringe with a 27 gauge needle. The vesicles were either used immediately for transportation studies after preparation, or stored at -196° C. in portions of 4 mg in liquid nitrogen.
2. Inhibition of Na^+ -dependent [^3 H]-taurocholate uptake in the brush border membrane vesicles of the ileum
The uptake of substrates into the brush border membrane vesicles described above was determined by means of the so-called membrane filtration technique. 10 μl of the vesicle suspension (100 μg of protein) were pipetted as drops onto the wall of a polystyrene incubation tube (11×70 mm) which contained the incubation medium with the corresponding ligands (90 μl). […]

Compound: C[C@H](CCC(=O)O)[C@H]1CC[C@H]2[C@@H]3[C@H](O)C[C@@H]4C[C@@H](OCCCCCCNC(N)=O)CC[C@]4(C)[C@H]3C[C@H](O)[C@]12C [Example 21]
- quotient of the IC50Na value of taurochenodesoxycholate (TCDC) standard and the particular substance: 0.33

Compound: Cc1ccc(S(=O)(=O)NCCCCCCO[C@H]2CC[C@@]3(C)[C@@H](C2)C[C@@H](O)[C@@H]2[C@@H]3C[C@H](O)[C@]3(C)[C@@H]([C@H](C)CCC(=O)O)CC[C@@H]23)cc1 [Example 35]
- quotient of the IC50Na value of taurochenodesoxycholate (TCDC) standard and the particular substance: 1.02

Compound: C[C@H](CCC(=O)O)[C@H]1CC[C@H]2[C@@H]3[C@H](O)C[C@@H]4C[C@@H](OCCCCCCOP(=O)(Oc5ccccc5)Oc5ccccc5)CC[C@]4(C)[C@H]3C[C@H](O)[C@]12C [Example 18]
- quotient of the IC50Na value of taurochenodesoxycholate (TCDC) standard and the particular substance: 0.42

Compound: C[C@H](CCC(=O)O)[C@H]1CC[C@H]2[C@@H]3[C@H](O)C[C@@H]4C[C@@H](OCCCCCCNC(=O)c5cccc6ccccc56)CC[C@]4(C)[C@H]3C[C@H](O)[C@]12C [Example 38]
- quotient of the IC50Na value of taurochenodesoxycholate (TCDC) standard and the particular substance: 0.41

Compound: COc1ccc(Cl)cc1C(=O)NCCc1ccc(S(=O)(=O)NC(=O)NCCCCCCO[C@H]2CC[C@@]3(C)[C@@H](C2)C[C@@H](O)[C@@H]2[C@@H]3C[C@H](O)[C@]3(C)[C@@H]([C@H](C)CCC(=O)O)CC[C@@H]23)cc1 [Example 40]
- quotient of the IC50Na value of taurochenodesoxycholate (TCDC) standard and the particular substance: 0.50

Compound: C[C@H](CCC(=O)O)[C@H]1CC[C@H]2[C@@H]3[C@H](O)C[C@@H]4C[C@H](CCNC(=O)c5cccc6ccccc56)CC[C@]4(C)[C@H]3C[C@H](O)[C@]12C [Example 33]
- quotient of the IC50Na value of taurochenodesoxycholate (TCDC) standard and the particular substance: 0.35

Compound: C[C@H](CCC(=O)O)[C@H]1CC[C@H]2[C@@H]3[C@H](O)C[C@@H]4C[C@@H](OCCCCCCCCCO)CC[C@]4(C)[C@H]3C[C@H](O)[C@]12C [Example 4]
- quotient of the IC50Na value of taurochenodesoxycholate (TCDC) standard and the particular substance: 0.69

Compound: Cc1ccc(S(=O)(=O)N(C)CCCCCCO[C@H]2CC[C@@]3(C)[C@@H](C2)C[C@@H](O)[C@@H]2[C@@H]3C[C@H](O)[C@]3(C)[C@@H]([C@H](C)CCC(=O)O)CC[C@@H]23)cc1 [Example 36]
- quotient of the IC50Na value of taurochenodesoxycholate (TCDC) standard and the particular substance: 0.20

Compound: C[C@H](CCC(=O)O)[C@H]1CC[C@H]2[C@@H]3[C@H](O)C[C@@H]4C[C@@H](OCCCCCCNC(=O)[C@H](O)[C@@H](O)[C@H](O)[C@H](O)CO)CC[C@]4(C)[C@H]3C[C@H](O)[C@]12C [Example 43]
- quotient of the IC50Na value of taurochenodesoxycholate (TCDC) standard and the particular substance: 0.73

Compound: C[C@H](CCC(=O)O)[C@H]1CC[C@H]2[C@@H]3[C@H](O)C[C@@H]4C[C@@H](OCCCCCCCCO)CC[C@]4(C)[C@H]3C[C@H](O)[C@]12C [Example 3]
- quotient of the IC50Na value of taurochenodesoxycholate (TCDC) standard and the particular substance: 0.35
